Measured values published in patent US11912701B2, “Protein kinase inhibitors for promoting liver regeneration or reducing or preventing hepatocyte death” (HEPAREGENIX GMBH, priority 2018, dated 2024).

Tests used:
[1] = target: T1, MKK4 (Homo sapiens, UniProt P45985); assay: 33PanQinase enzyme assay, MKK4; type: biochemical; conditions: assay 'IC50'; read-out: Potency MKK4 (IC50)
T1 construct: purchased ProQinase GmbH, Freiburg, Germany (33PanQinase Assay Service)
T1 sequence (P45985 1-399): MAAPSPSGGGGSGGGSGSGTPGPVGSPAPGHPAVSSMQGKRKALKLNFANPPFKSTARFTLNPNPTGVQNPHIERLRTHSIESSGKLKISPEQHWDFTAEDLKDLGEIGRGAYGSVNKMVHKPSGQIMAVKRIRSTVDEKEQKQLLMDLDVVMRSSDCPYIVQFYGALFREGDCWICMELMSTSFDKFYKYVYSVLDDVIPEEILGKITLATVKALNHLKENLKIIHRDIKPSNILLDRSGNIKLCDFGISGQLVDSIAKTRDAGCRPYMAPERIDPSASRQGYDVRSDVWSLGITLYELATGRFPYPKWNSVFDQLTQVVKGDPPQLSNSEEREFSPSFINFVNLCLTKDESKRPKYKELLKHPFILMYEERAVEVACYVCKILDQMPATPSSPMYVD
How it was run: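 Inhibition measured as 33Pi transfer to substrate after a 60-min, 30 °C reaction, acid-stopped and scintillation-counted.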

[2] = target: T2, MKK4 (Homo sapiens, UniProt P45985); assay: KINOMEscan competition binding assay, MKK4; conditions: residual percent of control binding (PoC) at 100 nM
T2 construct: S84/D399; host or cells: HEK-293
T2 sequence (P45985 84-399): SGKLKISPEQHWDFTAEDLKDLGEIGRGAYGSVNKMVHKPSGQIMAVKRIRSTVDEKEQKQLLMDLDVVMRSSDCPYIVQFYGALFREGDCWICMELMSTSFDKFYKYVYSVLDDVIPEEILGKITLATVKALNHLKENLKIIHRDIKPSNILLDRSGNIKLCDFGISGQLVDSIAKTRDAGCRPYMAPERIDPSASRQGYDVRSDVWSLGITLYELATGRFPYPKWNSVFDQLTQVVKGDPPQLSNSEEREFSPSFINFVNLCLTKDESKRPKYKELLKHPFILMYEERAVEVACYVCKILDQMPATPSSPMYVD
How it was run: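 Tested at 100 nM and reported as percent of control binding (PoC). MKK4 was produced in HEK-293 cells and DNA-tagged. Displacement from ligand-coated, blocked beads was read by qPCR of eluted kinase.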

[3] = target: T3, BRaf (Homo sapiens, UniProt P15056); assay: KINOMEscan competition binding assay, BRaf; conditions: ratio PoC (off-target)/PoC (MKK4)
T3 construct: purchased ProQinase GmbH, Freiburg, Germany (33PanQinase Assay Service)
T3 sequence (P15056 whole entry, species assumed): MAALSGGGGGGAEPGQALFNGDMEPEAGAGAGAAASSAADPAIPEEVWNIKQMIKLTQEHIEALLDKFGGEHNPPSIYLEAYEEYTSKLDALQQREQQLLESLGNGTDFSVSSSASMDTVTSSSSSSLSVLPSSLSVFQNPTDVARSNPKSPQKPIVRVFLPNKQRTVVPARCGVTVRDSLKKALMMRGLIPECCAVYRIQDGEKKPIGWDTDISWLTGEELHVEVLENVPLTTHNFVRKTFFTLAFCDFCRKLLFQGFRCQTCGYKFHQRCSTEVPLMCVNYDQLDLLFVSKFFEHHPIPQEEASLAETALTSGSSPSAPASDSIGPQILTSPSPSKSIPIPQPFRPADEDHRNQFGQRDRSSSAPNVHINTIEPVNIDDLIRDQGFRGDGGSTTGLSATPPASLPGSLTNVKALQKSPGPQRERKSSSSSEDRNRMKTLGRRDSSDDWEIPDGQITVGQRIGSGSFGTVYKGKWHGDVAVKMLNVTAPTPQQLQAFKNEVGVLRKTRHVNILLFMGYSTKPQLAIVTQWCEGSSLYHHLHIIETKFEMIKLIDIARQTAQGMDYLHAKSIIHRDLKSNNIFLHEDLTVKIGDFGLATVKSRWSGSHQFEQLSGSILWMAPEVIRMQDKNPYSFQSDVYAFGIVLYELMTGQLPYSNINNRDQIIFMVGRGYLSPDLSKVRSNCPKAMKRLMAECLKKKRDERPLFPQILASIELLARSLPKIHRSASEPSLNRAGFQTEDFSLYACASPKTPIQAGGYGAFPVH
How it was run: (§1)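 DNA-tagged kinases expressed in HEK-293 cells compete between immobilized ligand on blocked beads and test compound at 100 nM; kinase retained on beads quantified by qPCR of the tag.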

[4] = target: T3, BRaf; assay: 33PanQinase enzyme assay, BRaf; type: biochemical; conditions: ratio IC50(BRaf)/IC50(MKK4)
How it was run: (§2)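 Off-target selectivity is the ratio IC50(off-target)/IC50(MKK4), with IC50 values from least-squares fitting and single-point data as % residual activity. Reactions of enzyme/substrate mix, ATP and compound ran 60 min at 30° C before H3PO4 stop; ^33P incorporation read on a scintillation counter.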

[5] = target: T4, MKK7 (Homo sapiens, UniProt O14733); assay: 33PanQinase enzyme assay, MKK7; type: biochemical; parameters: purchased ProQinase GmbH, Freiburg, Germany (33PanQinase Assay Service); conditions: ratio IC50(MKK7)/IC50(MKK4)
T4 sequence (O14733 1-419): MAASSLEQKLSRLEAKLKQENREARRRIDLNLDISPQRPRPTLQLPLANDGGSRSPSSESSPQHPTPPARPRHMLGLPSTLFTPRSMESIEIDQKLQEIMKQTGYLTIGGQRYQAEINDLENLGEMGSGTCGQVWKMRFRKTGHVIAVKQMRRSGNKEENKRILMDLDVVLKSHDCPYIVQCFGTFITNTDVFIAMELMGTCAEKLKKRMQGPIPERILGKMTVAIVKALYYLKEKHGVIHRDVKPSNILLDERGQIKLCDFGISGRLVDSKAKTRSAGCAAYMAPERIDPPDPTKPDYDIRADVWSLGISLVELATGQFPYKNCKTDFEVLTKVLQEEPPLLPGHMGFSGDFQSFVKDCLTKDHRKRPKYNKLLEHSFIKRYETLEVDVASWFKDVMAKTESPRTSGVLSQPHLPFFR
How it was run: as §2

[6] = target: T5, JNK1 (Homo sapiens, UniProt P45983); assay: KINOMEscan competition binding assay, JNK1; parameters: M1/Q384; host or cells: HEK-293; conditions: ratio PoC (off-target)/PoC (MKK4)
How it was run: as §1
Target sequence in this assay (P45983 1-384 isoform P45983-2): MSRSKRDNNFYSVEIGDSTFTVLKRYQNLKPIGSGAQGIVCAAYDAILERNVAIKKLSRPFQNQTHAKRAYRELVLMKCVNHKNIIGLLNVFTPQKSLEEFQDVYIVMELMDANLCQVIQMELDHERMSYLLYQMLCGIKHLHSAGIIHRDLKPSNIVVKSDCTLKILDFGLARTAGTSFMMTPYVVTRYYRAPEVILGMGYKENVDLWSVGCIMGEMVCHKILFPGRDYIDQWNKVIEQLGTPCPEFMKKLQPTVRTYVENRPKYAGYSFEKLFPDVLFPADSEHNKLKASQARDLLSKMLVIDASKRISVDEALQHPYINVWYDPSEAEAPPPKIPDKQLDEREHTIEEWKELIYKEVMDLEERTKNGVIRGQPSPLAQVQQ

[7] = target: T4, MKK7; assay: KINOMEscan competition binding assay, MKK7; parameters: M1/R419; host or cells: HEK-293; conditions: ratio PoC (off-target)/PoC (MKK4)
How it was run: as §1

[8] = target: T5, JNK1; assay: 33PanQinase enzyme assay, JNK1; type: biochemical; parameters: purchased ProQinase GmbH, Freiburg, Germany (33PanQinase Assay Service); conditions: ratio IC50(JNK1)/IC50(MKK4)
How it was run: as §2
Target sequence in this assay (P45983 whole entry): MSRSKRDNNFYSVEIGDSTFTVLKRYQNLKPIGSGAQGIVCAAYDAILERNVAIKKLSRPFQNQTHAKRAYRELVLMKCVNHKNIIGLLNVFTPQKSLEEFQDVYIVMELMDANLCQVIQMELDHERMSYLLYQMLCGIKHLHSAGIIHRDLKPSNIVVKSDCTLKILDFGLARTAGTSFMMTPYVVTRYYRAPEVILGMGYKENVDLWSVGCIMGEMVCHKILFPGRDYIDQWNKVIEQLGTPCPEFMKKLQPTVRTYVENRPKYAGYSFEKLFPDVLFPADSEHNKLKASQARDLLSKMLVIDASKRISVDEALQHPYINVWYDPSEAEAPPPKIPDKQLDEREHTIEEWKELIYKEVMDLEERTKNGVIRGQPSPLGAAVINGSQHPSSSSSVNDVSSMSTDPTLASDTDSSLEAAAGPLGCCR

IC50 [1] [nM]	MKK4 [% Ctrl @ 100 nM [2]	selectivity based on % Ctrl @100 nM vs. Braf [3]	Selectivity Braf, IC50(off-target)/IC50(MKK4) [4]	Selectivity IVIKK7, IC50(off-target)/IC50(MKK4) [5]	selectivity based on % Ctrl @100 nM vs. JNK1 [6]	selectivity based on % Ctrl @100 nM vs. MKK7 [7]	Selectivity JNK1, IC50(off-target)/IC50(MKK4) [8]	SMILES
< 100	+++ (PoC < 1)	+++ (Ratio > 100)	+++ (IC50(off-target)/IC50(MKK4) > 100)	+++ (IC50(off-target)/IC50(MKK4) > 100)	+++ (Ratio > 100)	+++ (Ratio > 100)	+++ (IC50(off-target)/IC50(MKK4) > 100)	CCCS(=O)(=O)Nc1c(F)ccc(C(=O)c2c[nH]c3ncc(-c4ccc(C(F)(F)F)nc4)cc23)c1F [Example 230, N-(2,6-difluoro-3-(5-(6-(trifluoromethyl)pyridin-3-yl)-1H-pyrrolo[2,3-b]pyridine-3-carbonyl)phenyl)propane-1-sulfonamide]
100 to 1000	+ (3 ≤ PoC < 30)	◯ (3 ≥ Ratio)	◯ (3 ≥ IC50(off-target)/IC50(MKK4))	+++ (IC50(off-target)/IC50(MKK4) > 100)	++ (100 ≥ ratio > 10)	++ (100 ≥ ratio > 10)	+ (10 ≥ IC50(off-target)/IC50(MKK4) > 3)	CCCS(=O)(=O)Nc1ccc(F)c(C(=O)c2c[nH]c3ncc(-c4cccc(OC)c4)cc23)c1F [Example 103, N-(2,4-difluoro-3-(5-(3-methoxyphenyl)-1H-pyrrolo[2,3-b]pyridine-3-carbonyl)phenyl)propane-1-sulfonamide]
100 to 1000	+++ (PoC < 1)	+ (10 ≥ ratio > 3)	◯ (3 ≥ IC50(off-target)/IC50(MKK4))	+++ (IC50(off-target)/IC50(MKK4) > 100)	+++ (Ratio > 100)	+++ (Ratio > 100)	◯ (3 ≥ IC50(off-target)/IC50(MKK4))	CCCS(=O)(=O)Nc1ccc(F)c(C(=O)c2c[nH]c3ncc(-c4ccc(S(N)(=O)=O)nc4)cc23)c1F [Example 53]
100 to 1000	+++ (PoC < 1)	◯ (3 ≥ Ratio)	◯ (3 ≥ IC50(off-target)/IC50(MKK4))	+++ (IC50(off-target)/IC50(MKK4) > 100)	+++ (Ratio > 100)	+++ (Ratio > 100)	◯ (3 ≥ IC50(off-target)/IC50(MKK4))	CCCS(=O)(=O)Nc1ccc(F)c(C(=O)c2c[nH]c3ncc(-c4ccc(N)nc4)cc23)c1F [Example 50]
100 to 1000	+ (3 ≤ PoC < 30)	+ (10 ≥ ratio > 3)	◯ (3 ≥ IC50(off-target)/IC50(MKK4))	+++ (IC50(off-target)/IC50(MKK4) > 100)	++ (100 ≥ ratio > 10)	++ (100 ≥ ratio > 10)	+ (10 ≥ IC50(off-target)/IC50(MKK4) > 3)	CCCS(=O)(=O)Nc1ccc(F)c(C(=O)c2c[nH]c3ncc(-c4ccc([N+](=O)[O-])cc4)cc23)c1F [Example 107, N-(2,4-difluoro-3-(5-(4-nitrophenyl)-1H-pyrrolo[2,3-b]pyridine-3-carbonyl)phenyl)propane-1-sulfonamide]
100 to 1000	+++ (PoC < 1)	◯ (3 ≥ Ratio)	◯ (3 ≥ IC50(off-target)/IC50(MKK4))	+++ (IC50(off-target)/IC50(MKK4) > 100)	+++ (Ratio > 100)	+++ (Ratio > 100)	+ (10 ≥ IC50(off-target)/IC50(MKK4) > 3)	CCCS(=O)(=O)Nc1ccc(F)c(C(=O)c2c[nH]c3ncc(-c4ccc(S(C)(=O)=O)nc4)cc23)c1F [Example 77, N-(2,4-difluoro-3-(5-(6-(methylsulfonyl)pyridin-3-yl)-1H-pyrrolo[2,3-b]pyridine-3-carbonyl)phenyl)propane-1-sulfonamide]

SMILES	IC50 [1] [nM]	MKK4 [% Ctrl @ 100 nM [2]	selectivity based on % Ctrl @100 nM vs. Braf [3]	Selectivity Braf, IC50(off-target)/IC50(MKK4) [4]	Selectivity IVIKK7, IC50(off-target)/IC50(MKK4) [5]	selectivity based on % Ctrl @100 nM vs. JNK1 [6]	selectivity based on % Ctrl @100 nM vs. MKK7 [7]	Selectivity JNK1, IC50(off-target)/IC50(MKK4) [8]
O=C(c1cccc(NS(=O)(=O)Cc2ccccc2)c1F)c1c[nH]c2ncc(-c3ccc(Cl)cc3)cc12 [Example 124, N-(3-(5-(4-chlorophenyl)-1H-pyrrolo[2,3-b]pyridine-3-carbonyl)-2-fluorophenyl)-1-phenylmethanesulfonamide]	100 to 1000	+ (3 ≤ PoC < 30)	++ (100 ≥ ratio > 10)	+++ (IC50(off-target)/IC50(MKK4) > 100)	+++ (IC50(off-target)/IC50(MKK4) > 100)	++ (100 ≥ ratio > 10)	++ (100 ≥ ratio > 10)	◯ (3 ≥ IC50(off-target)/IC50(MKK4))
O=C(c1ccc(F)c(NS(=O)(=O)CCC(F)(F)F)c1F)c1c[nH]c2ncc(-c3cccnc3)cc12 [Example 156, N-(2,6-difluoro-3-(5-(pyridin-3-yl)-1H-pyrrolo[2,3-b]pyridine-3-carbonyl)phenyl)-3,3,3-trifluoropropane-1-sulfonamide]	< 100	+++ (PoC < 1)	+++ (Ratio > 100)	++ (100 ≥ IC50(off-target)/IC50(MKK4) > 10)	+++ (IC50(off-target)/IC50(MKK4) > 100)	+++ (Ratio > 100)	+++ (Ratio > 100)	+++ (IC50(off-target)/IC50(MKK4) > 100)
O=C(c1c(F)ccc(NS(=O)(=O)CCC(F)(F)F)c1F)c1c[nH]c2ncc(-c3ccc(N4CCOCC4)nc3)cc12 [Example 79, N-(2,4-difluoro-3-(5-(6-morpholinopyridin-3-yl)-1H-pyrrolo[2,3-b]pyridine-3-carbonyl)phenyl)-3,3,3-trifluoropropane-1-sulfonamide]	< 100	+++ (PoC < 1)	+++ (Ratio > 100)	+ (10 ≥ IC50(off-target)/IC50(MKK4) > 3)	+++ (IC50(off-target)/IC50(MKK4) > 100)	+++ (Ratio > 100)	+++ (Ratio > 100)	++ (100 ≥ IC50(off-target)/IC50(MKK4) > 10)
